{"source": "patent US20220378889A1", "about": "“NEO-EPITOPE VACCINES AND METHODS OF TREATING CANCER” (Epivax Therapeutics Inc., priority 2019, published 2022)", "key": {"[1]": {"test_system": "CT26 murine colon tumor cells", "experiment": "CT26 tumor growth with or without poly-ICLC (Example 13)", "type": "in vivo, BALB/c mice", "details": "day 25 post-tumor implantation; sc twice per week for three weeks from day 4", "procedure": "The goal of this experiment was to determine the requirement for the inclusion of the adjuvant poly-ICLC in a peptide vaccine containing ANCER™ selected neoantigens. For this experiment, female BALB/c mice were implanted subcutaneously with 3×10^5 CT26 murine colon tumor cells. Tumor growth was monitored by caliper measurement and mice were sacrificed 45 days after tumor implantation or when tumor volumes reached 2000 mm^3, whichever came first.\nFour vaccine groups were tested (n=10 mice/group):\nGroup 2=PBS with 50 μg poly-ICLC\nGroup 3=20 ANCER™ selected (uncapped) peptides with 50 μg poly-ICLC\nGroup 4=20 ANCER™ selected (uncapped) peptides only\nPeptide vaccines were comprised of 20 different ANCER™ selected peptides at a concentration of 5 μg/peptide for a total dose of 100 μg peptide per immunization. Mice were immunized subcutaneously in the opposite flank from tumor implantation twice per week for three weeks, starting at day 4 post-tumor implantation."}, "CT26 tumor cells": {"test_system": "CT26 tumor cells", "experiment": "CT26 tumor growth and survival after vaccination (Example 1)", "details": "N=10 mice per group", "experimental": "Mice were separated into three groups: 1) PBS control; 2) poly-ICLC (vehicle); 3) ANCER™-selected CT26 Neoantigen Peptides+poly-ICLC. • Group 1: PBS, sc injections at days 5, 8, 12, 15, 19, 22, and 26. • Group 2: poly-ICLC, 50 μg, sc injections at days 5, 8, 12, 15, 19, 22, and 26. • Group 3: 5 μg/ANCER™-selected CT26 Neoantigen Peptide (100 μg total ANCER™-selected CT26 Neoantigen Peptides)+50 μg poly-ICLC, sc injections at days 5, 8, 12, 15, 19, 22, and 26.\nAll mice (N=10 mice per group) were injected 3*10^5 CT26 tumor cells in 0% Matrigel at day 0. Mice were sacrificed once the tumor volume reached 2,000 mm^3 or at day 45, whichever came first."}}}
{"substance": "poly-ICLC", "values": [{"measurement": "control of tumor growth relative to PBS / poly-ICLC alone", "setting": "[1]", "value": "no difference in tumor growth kinetics"}, {"measurement": "mice reaching endpoint (tumor volume of at least 2,000 mm^3) by day 28", "setting": "CT26 tumor cells", "value": 60, "unit": "%"}]}
